This note sets out measurements from publication PMC8041370, “Limonoids from Guarea guidonia and Cedrela odorata: Heat Shock Protein 90 (Hsp90) Modulator Properties of Chisomicine D” (Journal of Natural Products, 2021).

Bounds are passed on as bounds.

In data set [1] the test system is U937 (human myeloid leukemia) cell line. In words: MTT cell viability, U937. The class given is cell-based. To be noted: U-937, 48 h, read-out: IC50 growth inhibition U937. As for the experimental part: (§1) HeLa (cervical carcinoma) and U937 (pro-monocytic, human myeloid leukemia) cell lines were purchased from the American Type Cell Culture (ATCC) (Rockville, MD, USA). HeLa cells were maintained in DMEM, and U937 were cultured in RPMI 1640, both supplemented with 10% FBS, 100 mg/L streptomycin, and penicillin 100 IU/mL at 37 °C in a humidified atmosphere of 5% CO2. To ensure logarithmic growth, cells were subcultured every 2 days. Stock solutions of compound in DMSO were stored in the dark at 4 °C. Appropriate dilutions were prepared in culture medium immediately prior to use. […] PBMCs were isolated from buffy coats of healthy donors (kindly provided by the Blood Center of the Hospital of Battipaglia, Italy) by using standard Ficoll-Hypaque gradients. PBMCs were incubated with DMSO or compound 1 at 30 μM for 48 h. […] The number of viable cells was quantified by the MTT [3-(4,5-dimethylthiazol-2-yl)-2,5-diphenyl tetrazolium bromide] assay. Absorption at 550 nm for each well was assessed using Multiskan GO (Thermo Scientific). Half-maximal inhibitory concentration (IC50) values were calculated using GraphPad Prism 8. Experiments were performed in technical triplicates and repeated two times with similar results.

For data set [2], the system named is HeLa (epithelial carcinoma) cells. Description: MTT cell viability, HeLa. It is filed as cell-based. The settings on record: Homo sapiens, 48 h. How it is done:
as §1

For data set [3], the system named is PBMC (nontumor human peripheral blood mononuclear cell line). In words: Cytotoxicity on PBMC. It is filed as cell-based. To be noted: 30 μM, 48 h. As for the experimental part: HeLa (cervical carcinoma) and U937 (pro-monocytic, human myeloid leukemia) cell lines were purchased from the American Type Cell Culture (ATCC) (Rockville, MD, USA). HeLa cells were maintained in DMEM, and U937 were cultured in RPMI 1640, both supplemented with 10% FBS, 100 mg/L streptomycin, and penicillin 100 IU/mL at 37 °C in a humidified atmosphere of 5% CO2. To ensure logarithmic growth, cells were subcultured every 2 days. Stock solutions of compound in DMSO were stored in the dark at 4 °C. Appropriate dilutions were prepared in culture medium immediately prior to use. […] PBMCs were isolated from buffy coats of healthy donors (kindly provided by the Blood Center of the Hospital of Battipaglia, Italy) by using standard Ficoll-Hypaque gradients. PBMCs were incubated with DMSO or compound 1 at 30 μM for 48 h.

Data set [4] has as its target T1, Hsp90α (Homo sapiens, UniProt P07900). In words: Surface plasmon resonance binding to immobilized Hsp90α. Further details: purchased Stress-gen Bioreagents Corporation, Victoria, Canada SPP-776. The settings on record: SPR, 25 °C, mean ± standard deviation (n = 3). As for the experimental part: 1 and 4 μM), and, for each sample, a complete binding study was carried out in triplicate. The experiments were performed at 25 °C, using a flow rate of 50 μL/min, with 60 s monitoring of association and 300 s monitoring of dissociation. Changes in mass, due to the binding response, were recorded as resonance units (RU). To obtain the dissociation constant (KD), these responses were fit to a 1:1 Langmuir binding model by nonlinear regression, using the BiaEvaluation sofware program (GE Healthcare). Simple interactions were suitably fitted to a single-site bimolecular interaction model (A + B = AB), yielding a single KD.
(SPR reads the build-up and loss of mass on a sensor chip optically.)

For data set [5], the target named is T1, Hsp90α. Description: Hsp90 ATPase activity. The class given is biochemical. To be noted: 10 or 20 μM; data not shown.
The test system of data set [6] is U937 cells. In words: Cell cycle by propidium iodide flow cytometry and p-CDC2/CDC2 Western blot. The class given is cell-based, human. How it is done: (§2) U937 cells were preliminarily synchronized by serum starvation and then seeded in six-well plates at a cell density of 8 × 10^5 cell/well. After 24 h, they were incubated for 48 h in the presence of compound 1 at IC50 concentration (20 μm), with phenethyl isothiocyanate and DMSO as a positive and negative control, respectively. Apoptosis was evaluated by an annexin V–FITC/PI apoptosis detection kit (Dojindo EU GmbH, Munich, Germany), and the cell cycle was evaluated by propidium iodide (PI) staining of permeabilized cells, according to the available protocol, and flow cytometry (BD FACSCalibur flow cytometer, Becton Dickinson, San Jose, CA, USA). Data from 5000 events per sample were collected. The percentages of the elements in the hypodiploid region and in G1, S, and G2 phases of the cell cycle and apoptosis data were calculated using FlowJo (BD Biosciences). Experiments were performed in technical triplicates and repeated two times with similar results.
(§3) Whole cell lysates (U937) for immunoblot analysis were lysed with RIPA buffer (20 mM Tris-HCl pH 7.5, 150 mM NaCl, 1 mM EDTA, 1% NP-40, 1% sodium deoxycholate, 2.5 mM sodium pyrophosphate) supplemented with protease and phosphatase inhibitors. Protein concentration was determined by a Bradford solution for protein determination (Applichem) using BSA as a standard. Proteins were fractionated on SDS-PAGE, transferred into nitrocellulose membranes, and immunoblotted with the appropriate primary antibody. Signals were visualized with the appropriate horseradish peroxidase-conjugated secondary antibody and enhanced chemiluminescence (Amersham Biosciences-GE Healthcare, NY, USA). Densitometric analyses were carried out using the ImageJ software. Experiments were performed in duplicate.
On the technique in general: In flow cytometry, cells or beads pass a laser one at a time.

Data set [7] has as its system U937 cells. Description: Apoptosis by annexin V-FITC/PI flow cytometry and caspase 3 Western blot. It is filed as cell-based, human. To be noted: U937, 20 μM. How it is done:
as §2
Whole cell lysates (U937) for immunoblot analysis were lysed with RIPA buffer (20 mM Tris-HCl pH 7.5, 150 mM NaCl, 1 mM EDTA, 1% NP-40, 1% sodium deoxycholate, 2.5 mM sodium pyrophosphate) supplemented with protease and phosphatase inhibitors. Protein concentration was determined by a Bradford solution for protein determination (Applichem) using BSA as a standard. […]

In data set [8] the test system is Hsp90α client protein levels in U937 cells. In words: Western blot of Hsp90α, Hsp70 and Hsp90 client protein levels. It is filed as cell-based, human. How it is done: as §3
Proteins extracted from U937 cells following a 24 h treatment with 20 μM solution of compound 1 and from untreated cells (control) were fractionated on SDS-PAGE. The bands corresponding to the intact and truncated forms of Hsp90 (apparent molecular weight 90 and 70 kDa, respectively) were excised and subjected to a classical in-gel tryptic digestion. The resulting peptide mixtures were analyzed in positive ion full scan and dependent scan MS mode on a Q-Exactive Orbitrap mass spectrometer coupled with a nanoUltimate UHPLC system (Thermo Fisher Scientific, Waltham, MA, USA). Peptide separation was performed on a capillary EASY-Spray PepMap column (0.075 mm × 50 mm, 2 μm, Thermo Fisher Scientific) using aqueous 0.1% formic acid (A) and CH3CN containing 0.1% formic acid (B) as mobile phases and a linear gradient from 3% to 40% of B in 45 min and a 300 nL/min flow rate. Mass spectra were acquired over an m/z range from 400 to 1300. Dependent scan data were preliminarily analyzed to confirm the presence of Hsp90 in the digested gel-bands. To this aim, MS and MS/MS data underwent Mascot software (v2.5, Matrix Science, Boston, MA, USA) analysis using the nonredundant data bank UniprotKB/Swiss-Prot (release 2020_03). Parameter sets were as follows: trypsin cleavage; carbamidomethylation of cysteine as a fixed modification and methionine oxidation as a variable modification; a maximum of two missed cleavages; false discovery rate (FDR), calculated by searching the decoy database, 0.05. The data analysis of protein was carried out using the gene ontology tool in the UniProt Knowledgebase (UniProtKB; http://www.uniprot.org). Based on the achieved results, full mass chromatograms were analyzed using Xcalibur software by generating extracted ion spectra specific for the Hsp90 tryptic peptides completely covering the protein amino acidic sequence.
In general terms: Immunoblotting shows a protein as a band on a membrane.

Setting [9] is: U937, 20 μM, 48 h, PI staining, Figure 2B.

Consider `C/C=C(\C)C(=O)O[C@@H]1/C=C\[C@]2(O)C3=CC(=O)O[C@@H](c4ccoc4)[C@]3(C)CC[C@]2(O)[C@]2(C)C(=O)C[C@@]1(C)[C@@H]2CC(=O)OC` (relative stereo) [Compound 1, 8-hydro-(8S*,9S*)-dihydroxy-14,15-en-chisomicine A], for which the IC50 (in general, the concentration needed to halve the response being measured) in data set [1] was 20 ± 3 µM. Besides, the IC50 in data set [2] is over 50 µM. Also, the “cytotoxic activity on PBMC” value in data set [3] is “did not show any cytotoxic activity”. Moreover, the Kd (commonly the constant that tells how readily two partners part at equilibrium) on Hsp90α [4] was determined as 0.0182 ± 0.0019 µM. Also, the “inhibition of Hsp90 ATPase activity” value at Hsp90α [5] is “did not affect its enzymatic efficiency”. For the same compound, in the data set with U937 cells [6] (setting [9]), the G1 phase is given as 53,1, the G2 phase is 16,7 and the S phase is 12,3. In addition, the “effect on cell cycle” value with U937 cells [6] (U937, 48 h (1 at 20 μM)) is recorded as “G2 phase cell cycle arrest”. Also, in the data set with U937 cells [6] (U937, Western blot, 10 and 20 μM), the p-CDC2/CDC2 ratio result is on record as “increase”. For the same compound, the “increase of late apoptosis compared to the negative control” value with U937 cells [7] (48 h, annexin V/FITC) is “about 15%”. The “pro-caspase 3 cleavage” value with U937 cells [7] (Western blot) is “induced the cleavage of pro-caspase 3”. For the same compound, in data set [8] (U937, 30 μM, 48 h), the Hsp70 cellular levels result was “affected”. In data set [8] (U937, 10, 20 and 30 μM, 48 h), the ERK concentration result is “no significant variation”, the Hsp90 amount entry is reported as “down-regulated in a dose-dependent manner” and the p-ERK2 level entry is given as “strong depletion”. In addition, the Hsp90 cleavage entry in data set [8] (U937, 20 and 30 μM, 48 h) is on record as “Hsp90 cleaved form, with an apparent molecular weight of 70 kDa, was observed”. The “level of both isoforms of JNK” value in data set [8] (U937, 48 h, regardless of phosphorylation) was “significantly reduced”.
